# Activity calls are given as the source filed them.
# Columns and labels:
# [1] = system: BJ; experiment: cells; type: functional, cell-based; details: Homo sapiens
# [2] = target: Probable nicotinate-nucleotide adenylyltransferase (Staphylococcus aureus (strain N315), UniProt P65502); type: functional, Staphylococcus aureus subsp. aureus N315; details: read-out: IC50_Mean;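 note: confirmatory dose-response retesting of NadD inhibitor hits first found in an ultra-high-throughput screen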
# [3] = target: Protein-tyrosine kinase 2-beta (Homo sapiens, UniProt Q14289);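 note: potency of inhibitors of PYK2 kinase phosphorylation of poly-GT substrate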
# Protein-tyrosine kinase 2-beta, sequence (Q14289 whole entry): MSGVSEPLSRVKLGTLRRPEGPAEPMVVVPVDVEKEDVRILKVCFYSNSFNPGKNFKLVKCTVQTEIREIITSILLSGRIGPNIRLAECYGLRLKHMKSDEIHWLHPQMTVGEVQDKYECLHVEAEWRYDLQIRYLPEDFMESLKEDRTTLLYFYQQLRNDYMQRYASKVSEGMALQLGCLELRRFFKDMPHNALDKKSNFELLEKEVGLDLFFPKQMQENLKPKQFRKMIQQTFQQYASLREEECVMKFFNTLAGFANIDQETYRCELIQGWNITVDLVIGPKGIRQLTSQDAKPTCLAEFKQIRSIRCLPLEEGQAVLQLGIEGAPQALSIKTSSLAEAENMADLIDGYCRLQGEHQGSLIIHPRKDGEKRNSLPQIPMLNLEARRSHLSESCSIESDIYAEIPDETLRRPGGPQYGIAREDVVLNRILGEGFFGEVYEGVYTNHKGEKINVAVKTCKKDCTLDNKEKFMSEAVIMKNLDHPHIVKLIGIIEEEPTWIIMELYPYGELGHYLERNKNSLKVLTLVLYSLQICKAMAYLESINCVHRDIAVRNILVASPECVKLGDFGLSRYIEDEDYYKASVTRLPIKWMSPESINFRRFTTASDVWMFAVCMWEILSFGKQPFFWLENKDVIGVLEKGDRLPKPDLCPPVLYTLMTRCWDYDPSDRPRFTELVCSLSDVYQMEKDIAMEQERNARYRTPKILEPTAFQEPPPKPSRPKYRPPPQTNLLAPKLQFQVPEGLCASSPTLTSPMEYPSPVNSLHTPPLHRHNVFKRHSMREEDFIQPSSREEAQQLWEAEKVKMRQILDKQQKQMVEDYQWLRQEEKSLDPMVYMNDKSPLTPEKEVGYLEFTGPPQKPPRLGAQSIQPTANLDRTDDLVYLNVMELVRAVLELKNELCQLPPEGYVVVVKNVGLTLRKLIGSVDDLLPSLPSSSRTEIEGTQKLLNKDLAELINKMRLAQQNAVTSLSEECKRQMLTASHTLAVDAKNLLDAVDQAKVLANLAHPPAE
# [4] = IC50 of Artemis nuclease activity blockers – biochemical, fluorescence intensity, dose response (AID 720701); type: functional;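 note: Artemis endonuclease enzyme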
# [5] = target: Mitochondrial peptide methionine sulfoxide reductase (Bos taurus, UniProt P54149); experiment: Absorbance-based biochemical high throughput dose response assay for activators of Methionine sulfoxide reductase A (MsrA).; type: functional
# Mitochondrial peptide methionine sulfoxide reductase, sequence (P54149 whole entry): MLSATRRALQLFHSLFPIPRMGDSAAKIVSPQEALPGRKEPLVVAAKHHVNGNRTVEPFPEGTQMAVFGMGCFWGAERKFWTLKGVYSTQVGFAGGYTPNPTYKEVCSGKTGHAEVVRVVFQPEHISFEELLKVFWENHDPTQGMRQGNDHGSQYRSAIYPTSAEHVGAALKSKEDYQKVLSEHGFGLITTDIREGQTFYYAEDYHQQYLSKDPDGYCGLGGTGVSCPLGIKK
# [6] = system: Vero; experiment: viability of Vero cells under compound – cytotoxicity control for flavivirus capping enzyme inhibitors (AID 588742); type: functional; details: Chlorocebus sabaeus
# [7] = target: T1, Mannose-6-phosphate isomerase (Homo sapiens, UniProt P34949); experiment: MPI inhibition at elevated mannose 6-phosphate – biochemical, fluorescence intensity, high mannose 6-phosphate, primary screen (AID 1220)
# T1 sequence (P34949 whole entry): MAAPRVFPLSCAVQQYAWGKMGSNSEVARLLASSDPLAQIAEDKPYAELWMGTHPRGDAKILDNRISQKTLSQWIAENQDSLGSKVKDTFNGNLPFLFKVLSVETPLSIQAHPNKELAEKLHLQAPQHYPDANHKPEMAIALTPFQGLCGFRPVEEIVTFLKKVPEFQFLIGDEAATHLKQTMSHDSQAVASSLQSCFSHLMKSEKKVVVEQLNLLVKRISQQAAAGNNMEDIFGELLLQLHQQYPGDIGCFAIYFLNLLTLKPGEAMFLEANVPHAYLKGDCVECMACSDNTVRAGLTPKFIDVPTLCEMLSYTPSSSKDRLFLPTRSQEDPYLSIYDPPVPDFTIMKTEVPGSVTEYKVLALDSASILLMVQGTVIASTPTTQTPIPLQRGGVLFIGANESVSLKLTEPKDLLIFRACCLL
# [8] = target: 14-3-3 protein gamma (Homo sapiens, UniProt P61981); experiment: modulators of 14-3-3 gamma client binding – dose response (AID 711); type: functional
# 14-3-3 protein gamma, sequence (P61981 whole entry): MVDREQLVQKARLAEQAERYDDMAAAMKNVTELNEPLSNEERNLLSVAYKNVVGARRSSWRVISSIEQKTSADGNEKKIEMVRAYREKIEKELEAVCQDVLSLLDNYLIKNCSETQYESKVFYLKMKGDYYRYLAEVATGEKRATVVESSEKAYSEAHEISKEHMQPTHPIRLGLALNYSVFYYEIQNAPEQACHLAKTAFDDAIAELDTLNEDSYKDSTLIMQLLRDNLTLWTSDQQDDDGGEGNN
# [9] = target: T2, Apoptotic protease-activating factor 1 (Homo sapiens, UniProt O14727); experiment: activation of Apaf-1 mediated apoptosis – fluorescent, uHTS hits, dose response (AID 588554); type: functional
# T2 sequence (O14727 whole entry): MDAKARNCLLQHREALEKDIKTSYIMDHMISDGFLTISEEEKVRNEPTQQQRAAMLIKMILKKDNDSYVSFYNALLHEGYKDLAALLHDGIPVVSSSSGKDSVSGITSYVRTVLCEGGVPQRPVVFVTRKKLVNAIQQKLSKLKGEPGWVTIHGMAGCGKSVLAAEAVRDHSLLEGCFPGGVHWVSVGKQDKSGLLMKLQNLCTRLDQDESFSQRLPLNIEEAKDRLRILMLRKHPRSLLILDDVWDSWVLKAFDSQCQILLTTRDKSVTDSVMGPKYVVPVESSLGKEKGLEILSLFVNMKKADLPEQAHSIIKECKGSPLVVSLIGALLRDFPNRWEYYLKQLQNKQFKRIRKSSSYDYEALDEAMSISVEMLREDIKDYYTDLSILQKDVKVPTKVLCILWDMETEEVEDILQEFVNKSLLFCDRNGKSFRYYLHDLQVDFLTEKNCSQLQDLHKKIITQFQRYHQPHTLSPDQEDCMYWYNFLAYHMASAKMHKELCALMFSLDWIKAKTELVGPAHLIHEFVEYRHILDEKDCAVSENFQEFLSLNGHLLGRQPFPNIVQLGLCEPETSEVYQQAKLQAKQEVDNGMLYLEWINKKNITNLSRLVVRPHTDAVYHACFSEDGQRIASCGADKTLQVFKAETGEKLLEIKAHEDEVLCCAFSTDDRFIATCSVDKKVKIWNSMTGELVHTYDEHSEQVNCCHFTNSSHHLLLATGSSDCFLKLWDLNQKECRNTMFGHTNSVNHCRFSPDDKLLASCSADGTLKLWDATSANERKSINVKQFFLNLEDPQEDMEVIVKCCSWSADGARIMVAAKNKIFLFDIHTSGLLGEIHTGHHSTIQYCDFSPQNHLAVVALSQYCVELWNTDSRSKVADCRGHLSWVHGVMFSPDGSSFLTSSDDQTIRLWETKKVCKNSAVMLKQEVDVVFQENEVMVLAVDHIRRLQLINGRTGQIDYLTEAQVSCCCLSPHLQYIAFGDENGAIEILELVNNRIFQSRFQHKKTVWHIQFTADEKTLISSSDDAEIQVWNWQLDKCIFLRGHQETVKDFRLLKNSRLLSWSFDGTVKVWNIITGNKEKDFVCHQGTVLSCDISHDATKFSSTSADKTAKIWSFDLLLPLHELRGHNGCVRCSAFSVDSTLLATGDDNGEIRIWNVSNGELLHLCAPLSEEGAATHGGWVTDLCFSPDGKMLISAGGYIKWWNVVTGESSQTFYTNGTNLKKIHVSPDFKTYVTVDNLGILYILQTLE
# [10] = target: T3, Tyrosine-protein phosphatase non-receptor type 22 (Homo sapiens, UniProt Q9Y2R2); experiment: SAR LYP1 Fluorescent Assay using OMFP substrate for In Vitro dose response studies - Set 2. [Related pubchem assays (depositor defined):AID1779, AID1784, AID2140, AID449726, AID488869]; type: functional
# T3 sequence (Q9Y2R2 whole entry): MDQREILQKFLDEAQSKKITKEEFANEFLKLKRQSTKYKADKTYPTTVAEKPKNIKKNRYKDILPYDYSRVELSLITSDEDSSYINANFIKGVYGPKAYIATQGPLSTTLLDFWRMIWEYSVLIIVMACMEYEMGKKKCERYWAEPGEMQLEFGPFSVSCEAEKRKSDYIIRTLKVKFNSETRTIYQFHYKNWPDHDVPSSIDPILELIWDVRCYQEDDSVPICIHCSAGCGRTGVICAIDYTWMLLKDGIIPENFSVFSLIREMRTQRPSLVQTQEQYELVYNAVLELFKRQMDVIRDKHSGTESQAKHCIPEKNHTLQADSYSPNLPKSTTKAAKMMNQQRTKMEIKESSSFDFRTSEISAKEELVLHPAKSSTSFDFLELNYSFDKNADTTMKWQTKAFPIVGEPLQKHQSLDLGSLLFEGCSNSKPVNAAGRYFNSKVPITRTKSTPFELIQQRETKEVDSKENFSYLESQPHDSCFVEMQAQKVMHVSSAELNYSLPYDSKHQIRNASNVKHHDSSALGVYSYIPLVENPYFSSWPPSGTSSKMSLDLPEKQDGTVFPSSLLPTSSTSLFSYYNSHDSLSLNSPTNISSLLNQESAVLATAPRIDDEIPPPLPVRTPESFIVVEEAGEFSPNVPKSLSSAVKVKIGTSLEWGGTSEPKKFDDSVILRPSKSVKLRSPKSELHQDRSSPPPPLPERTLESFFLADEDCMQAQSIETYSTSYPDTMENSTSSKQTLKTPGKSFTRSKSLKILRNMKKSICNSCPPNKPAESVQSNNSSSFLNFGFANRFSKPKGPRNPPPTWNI
# Probable nicotinate-nucleotide adenylyltransferase, sequence (P65502 whole entry): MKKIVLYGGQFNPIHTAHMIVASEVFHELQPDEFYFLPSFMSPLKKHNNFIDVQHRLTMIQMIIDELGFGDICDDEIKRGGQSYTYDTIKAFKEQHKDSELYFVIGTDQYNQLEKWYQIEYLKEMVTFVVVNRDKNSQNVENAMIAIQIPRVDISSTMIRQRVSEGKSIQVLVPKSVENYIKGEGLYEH
smiles,measurement,setting,value
CCN1/C(=C/c2ccc3cc(C)ccc3[n+]2CC)Sc2cc(C)c(C)cc21,EC50,[1],2.34 µM (active)
Nc1ccc2nc3c(O)nc(S)nc3nc2c1,IC50,[2],17 µM (active)
Cc1oc2c(c1C(=O)c1ccccc1)C(=O)C(=O)c1ccccc1-2,IC50,[3],> 69.5 µM (not active)
same,IC50,[4],1.48 µM (active)
same,EC50,[5],63.2 µM (inactive)
same,CC50,[6],6.37 µM (active)
same,IC50,[7],> 50 µM (not active)
O=C1CCCC2=C1C1(O)C(=O)c3ccccc3C1(O)O2 (stereo not given),IC50,[8],> 50 µM (not active)
CSc1ccc(C=NNc2ccc(S(=O)(=O)Nc3ccccc3C(=O)O)cc2[N+](=O)[O-])cc1,EC50,[9],8.23 µM (active)
O=C(O)COc1ccc(/C=N/NC(=O)c2ccc(-c3csc(Nc4ccc(Cl)cc4)n3)cc2)cc1,IC50,[10],1.24 µM (active)
